The record followed here is patent US9096592B2, “Bicyclic aza heterocycles, and use thereof” (BAYER INTELLECTUAL PROPERTY GMBH, priority 2010, dated 2015).

Where a name gives a salt, the structure may show the parent alone.

One may read the IC50 as the concentration at which inhibition is half-maximal.

The assay has as its system aorta rings. Put plainly: Vasorelaxant action in vitro (phenylephrine-contracted rabbit aorta rings, organ bath). The following applies: Oryctolagus cuniculus; concentration needed to reduce the phenylephrine contraction of rabbit aorta rings by 50%. The procedure:
B-1. Vasorelaxant Action In Vitro
Rabbits are stunned by a blow to the neck and exsanguinated. The aorta is removed, freed from adhering tissue and divided into rings of width 1.5 mm, which are placed individually under prestress into 5 ml organ baths with carbogen-sparged Krebs-Henseleit solution at 37° C. having the following composition (each mM): sodium chloride 119; potassium chloride: 4.8; calcium chloride dihydrate: 1; magnesium sulfate heptahydrate: 1.4; potassium dihydrogenphosphate: 1.2; sodium hydrogencarbonate: 25; glucose: 10. The contractile force is determined with Statham UC2 cells, amplified and digitalized using A/D transducers (DAS-1802 HC, Keithley Instruments Munich), and recorded in parallel on linear recorders. To obtain a contraction, phenylephrine is added to the bath cumulatively in increasing concentration. After several control cycles, the substance to be studied is added in increasing dosage each time in every further run, and the magnitude of the contraction is compared with the magnitude of the contraction attained in the last preceding run. This is used to calculate the concentration needed to reduce the magnitude of the control value by 50% (IC50 value). The standard administration volume is 5 μl; the DMSO content in the bath solution corresponds to 0.1%.
Compound `O=c1[nH]c2nc(-c3nn(Cc4ccccc4F)c4ncccc34)ncc2n1C1CCN(C2CC2)CC1` [Example 104, 7-(1-Cyclopropylpiperidin-4-yl)-2-[1-(2-fluorobenzyl)-1H-pyrazolo[3,4-b]pyridin-3-yl]-7,9-dihydro-8H-purin-8-one] had an IC50 of 40 nM. That is a double-digit nanomolar value. In turn, `COC(=O)N1NC(=O)Nc2nc(-c3nn(Cc4ccccc4F)c4ncccc34)nc(N)c21` [Example 105, Methyl 8-amino-6-[1-(2-fluorobenzyl)-1H-pyrazolo[3,4-b]pyridin-3-yl]-3-oxo-3,4-dihydropyrimido[4,5-e][1,2,4]triazine-1(2H)-carboxylate] gave an IC50 of 402 nM.

In turn, `Cn1c(=O)[nH]c2nc(-c3nn(Cc4ccccc4F)c4ncccc34)nc(N3CCC3)c21` [Example 112, 6-(Azetidin-1-yl)-2-[1-(2-fluorobenzyl)-1H-pyrazolo[3,4-b]pyridin-3-yl]-7-methyl-7,9-dihydro-8H-purin-8-one] gave an IC50 of 1350 nM. Take `Cc1nc(-c2nn(Cc3ccccc3F)c3ncccc23)nc2[nH]c(=O)[nH]c12` [Example 119, 2-[1-(2-Fluorobenzyl)-1H-pyrazolo[3,4-b]pyridin-3-yl]-6-methyl-7,9-dihydro-8H-purin-8-one]: it took 735 nM to reach half-maximal inhibition (IC50). To `CC(C)(C)Cn1c(=O)[nH]c2nc(-c3nn(Cc4ccccc4F)c4ncccc34)ncc21` [Example 122, 7-(2,2-Dimethylpropyl)-2-[1-(2-fluorobenzyl)-1H-pyrazolo[3,4-b]pyridin-3-yl]-7,9-dihydro-8H-purin-8-one] belongs 42 nM. For the compound `O=c1[nH]c2nc(-c3nn(Cc4ccccc4F)c4ncccc34)ncc2n1Cc1ccccc1F` [Example 124, 7-(2-fluorobenzyl)-2-[1-(2-fluorobenzyl)-1H-pyrazolo[3,4-b]pyridin-3-yl]-7,9-dihydro-8H-purin-8-one], 87 nM corresponded to half-maximal inhibition (IC50). To `Cn1c(=O)[nH]c2nc(-c3nn(Cc4ccccc4F)c4ncccc34)nc(C#CC(C)(C)O)c21` [Example 135, 2-[1-(2-Fluorobenzyl)-1H-pyrazolo[3,4-b]pyridin-3-yl]-6-(3-hydroxy-3-methylbut-1-yn-1-yl)-7-methyl-7,9-dihydro-8H-purin-8-one] belongs 264 nM; to `Cn1c(=O)[nH]c2nc(-c3nn(Cc4ccccc4F)c4ncccc34)nc(C(C)(C)O)c21` [Example 136, 2-[1-(2-Fluorobenzyl)-1H-pyrazolo[3,4-b]pyridin-3-yl]-6-(2-hydroxypropan-2-yl)-7-methyl-7,9-dihydro-8H-purin-8-one], 114 nM.

With `O=c1[nH]c2nc(-c3nn(Cc4ccccc4F)c4ncccc34)ncc2n1CCN1CCOCC1` [Example 142, 2-[1-(2-Fluorobenzyl)-1H-pyrazolo[3,4-b]pyridin-3-yl]-7-[2-(morpholin-4-yl)ethyl]-7,9-dihydro-8H-purin-8-one], the IC50 is 98 nM. The compound `O=c1[nH]c2nc(-c3nn(Cc4ccccc4F)c4ncccc34)ncc2n1C1CCN(CC(F)F)CC1` [Example 145, 7-[1-(2,2-Difluoroethyl)piperidin-4-yl]-2-[1-(2-fluorobenzyl)-1H-pyrazolo[3,4-b]pyridin-3-yl]-7,9-dihydro-8H-purin-8-one] displayed an IC50 of 171 nM. On to `CS(=O)(=O)CCn1c(=O)[nH]c2nc(-c3nn(Cc4ccccc4F)c4ncc(F)cc34)ncc21` [Example 146, 2-[5-Fluoro-1-(2-fluorobenzyl)-1H-pyrazolo[3,4-b]pyridin-3-yl]-7-[2-(methylsulfonyl)ethyl]-7,9-dihydro-8H-purin-8-one], for which the IC50 stood at 421 nM.

For the compound `O=c1[nH]c2nc(-c3nn(Cc4ccccc4F)c4ncccc34)ncc2n1C1CNC1` [Example 147, 7-(Azetidin-3-yl)-2-[1-(2-fluorobenzyl)-1H-pyrazolo[3,4-b]pyridin-3-yl]-7,9-dihydro-8H-purin-8-one hydrochloride], the IC50 worked out at 580 nM. To `O=c1[nH]c2nc(-c3nn(Cc4ccccc4F)c4ncccc34)ncc2c(=O)n1CC(F)(F)F` [Example 149, 7-[1-(2-Fluorobenzyl)-1H-pyrazolo[3,4-b]pyridin-3-yl]-3-(2,2,2-trifluoroethyl)pyrimido[4,5-d]pyrimidine-2,4(1H,3H)-dione] belongs 462 nM; to `O=c1[nH]c(=O)c2cnc(-c3nn(Cc4ccccc4F)c4ncccc34)nc2[nH]1` [Example 150, 7-[1-(2-Fluorobenzyl)-1H-pyrazolo[3,4-b]pyridin-3-yl]pyrimido[4,5-d]pyrimidine-2,4(1H,3H)-dione], 479 nM. As for `CCc1nc(=O)c2cnc(-c3nn(Cc4ccccc4F)c4ncccc34)nc2[nH]1` [Example 153, 2-Ethyl-7-[1-(2-fluorobenzyl)-1H-pyrazolo[3,4-b]pyridin-3-yl]pyrimido[4,5-d]pyrimidin-4(1H)-one], the figure is 1300 nM.
